Assay results from ChEMBL document CHEMBL5620391 (Eur J Med Chem, 2023).

Columns and labels:
[1] = target: Serine/threonine-protein kinase mTOR (Homo sapiens, UniProt P42345); test: Inhibition of N-terminal FLAG-tagged recombinant human mTOR (1362 to end residues) using ULight-4E-BP1 (Thr37/46) peptide as substrate incubated for 30 mins in presence of ATP by LANCE ultra assay
[2] = target: Phosphatidylinositol 4,5-bisphosphate 3-kinase catalytic subunit gamma isoform (Homo sapiens, UniProt P48736); test: Inhibition of PI3Kgamma (unknown origin) using PIP2 as substrate incubated for 60 mins in presence of ATP by ADP-Glo assay
[3] = target: Phosphatidylinositol 4,5-bisphosphate 3-kinase catalytic subunit alpha isoform (Homo sapiens, UniProt P42336); test: Inhibition of PI3Kalpha (unknown origin) using PIP2 as substrate incubated for 60 mins in presence of ATP by ADP-Glo assay
[4] = target: T1, Phosphatidylinositol 4,5-bisphosphate 3-kinase catalytic subunit delta isoform (Homo sapiens, UniProt O00329); test: Inhibition of PI3Kdelta (unknown origin) using PIP2 as substrate incubated for 60 mins in presence of ATP by ADP-Glo assay
T1 sequence (O00329 whole entry): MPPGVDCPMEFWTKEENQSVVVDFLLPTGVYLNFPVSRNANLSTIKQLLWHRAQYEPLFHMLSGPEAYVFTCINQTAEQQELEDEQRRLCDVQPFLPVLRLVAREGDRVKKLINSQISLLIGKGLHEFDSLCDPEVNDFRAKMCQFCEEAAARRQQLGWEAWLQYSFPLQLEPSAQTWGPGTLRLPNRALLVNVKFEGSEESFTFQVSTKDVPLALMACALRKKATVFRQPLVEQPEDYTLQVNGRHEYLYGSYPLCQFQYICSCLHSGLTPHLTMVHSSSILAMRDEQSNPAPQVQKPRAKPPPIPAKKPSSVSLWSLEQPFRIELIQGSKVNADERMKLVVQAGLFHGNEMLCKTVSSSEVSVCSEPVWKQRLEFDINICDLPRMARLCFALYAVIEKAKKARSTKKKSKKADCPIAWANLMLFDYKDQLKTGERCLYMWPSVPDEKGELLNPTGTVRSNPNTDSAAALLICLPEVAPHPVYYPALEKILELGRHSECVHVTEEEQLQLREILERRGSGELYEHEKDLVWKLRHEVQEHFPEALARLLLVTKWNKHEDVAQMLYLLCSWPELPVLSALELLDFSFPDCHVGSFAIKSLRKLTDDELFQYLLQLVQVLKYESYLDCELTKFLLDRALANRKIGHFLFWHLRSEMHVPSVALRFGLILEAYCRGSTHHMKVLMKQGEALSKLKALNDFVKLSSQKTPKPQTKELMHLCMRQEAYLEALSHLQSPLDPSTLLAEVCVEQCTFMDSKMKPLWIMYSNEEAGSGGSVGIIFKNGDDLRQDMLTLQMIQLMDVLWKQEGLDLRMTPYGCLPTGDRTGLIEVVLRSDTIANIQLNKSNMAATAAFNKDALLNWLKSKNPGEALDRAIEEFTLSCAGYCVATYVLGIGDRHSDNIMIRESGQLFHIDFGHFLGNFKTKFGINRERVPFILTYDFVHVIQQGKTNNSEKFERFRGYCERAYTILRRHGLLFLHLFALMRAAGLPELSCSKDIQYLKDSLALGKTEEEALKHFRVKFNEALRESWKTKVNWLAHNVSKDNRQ

[5] = target: Phosphatidylinositol 4,5-bisphosphate 3-kinase catalytic subunit beta isoform (Homo sapiens, UniProt P42338); test: Inhibition of PI3Kbeta (unknown origin) using PIP2 as substrate incubated for 60 mins in presence of ATP by ADP-Glo assay
[6] = Clearance in fasted Sprague-Dawley rat at 2 mg/kg, iv measured for 24 hrs by LC-MS/MS analysis; format: ADME, organism-based; details: in vivo
[7] = Toxicity in nude BALB/c mouse xenografted with human HL-60 cells assessed as toxic sign in lung at 5 to 10 mg/kg, ip administered for 21 days consecutively by H and E staining based analysis; format: organism-based; details: in vivo, 504 h, dose 5-10 mg/kg, time 21 day
[8] = AUC (0 to t) in fasted Sprague-Dawley rat at 2 mg/kg, iv measured for 24 hrs by LC-MS/MS analysis; format: ADME, organism-based; details: in vivo
[9] = Toxicity in nude BALB/c mouse xenografted with human HL-60 cells assessed as toxic sign in spleen at 5 to 10 mg/kg, ip administered for 21 days consecutively by H and E staining based analysis; format: organism-based; details: in vivo, 504 h, dose 5-10 mg/kg, time 21 day
[10] = Half life in fasted Sprague-Dawley rat at 2 mg/kg, iv measured for 24 hrs by LC-MS/MS analysis; format: ADME, organism-based; details: in vivo
[11] = tested on: HL-60; test: Induction of apoptosis in human HL-60 cells assessed as viable cells at 1 uM incubated for 48 hrs by Annexin V-FITC/PI staining based flow cytometry (reference value: 97.4 %); format: functional; details: read-out: Activity
[12] = tested on: HL-60; test: Induction of apoptosis in human HL-60 cells assessed as viable cells at 0.25 uM incubated for 48 hrs by Annexin V-FITC/PI staining based flow cytometry (reference value: 97.4 %); format: functional; details: read-out: Activity
[13] = Toxicity in nude BALB/c mouse xenografted with human HL-60 cells assessed as toxic sign in liver at 5 to 10 mg/kg, ip administered for 21 days consecutively by H and E staining based analysis; format: organism-based; details: in vivo, 504 h, dose 5-10 mg/kg, time 21 day
[14] = Cmax in fasted Sprague-Dawley rat at 10 mg/kg, po measured for 24 hrs by LC-MS/MS analysis; format: ADME, organism-based; details: in vivo
[15] = MRT (infinity) in fasted Sprague-Dawley rat at 2 mg/kg, iv measured for 24 hrs by LC-MS/MS analysis; format: ADME, organism-based; details: in vivo
[16] = Toxicity in nude BALB/c mouse xenografted with human HL-60 cells assessed as body weight change at 5 to 10 mg/kg, ip administered for 21 days consecutively; format: organism-based; details: in vivo, 504 h, dose 5-10 mg/kg, time 21 day
[17] = Tmax in fasted Sprague-Dawley rat at 10 mg/kg, po measured for 24 hrs by LC-MS/MS analysis; format: ADME, organism-based; details: in vivo
[18] = tested on: HL-60; test: Induction of apoptosis in human HL-60 cells assessed as viable cells at 0.5 uM incubated for 48 hrs by Annexin V-FITC/PI staining based flow cytometry (reference value: 97.4 %); format: functional; details: read-out: Activity
[19] = Toxicity in nude BALB/c mouse xenografted with human HL-60 cells assessed as toxic sign in heart at 5 to 10 mg/kg, ip administered for 21 days consecutively by H and E staining based analysis; format: organism-based; details: in vivo, 504 h, dose 5-10 mg/kg, time 21 day
[20] = Apparent volume of distribution in fasted Sprague-Dawley rat at 2 mg/kg, iv measured for 24 hrs by LC-MS/MS analysis; format: ADME, organism-based; details: in vivo, read-out: Vz
[21] = AUC (0 to t) in fasted Sprague-Dawley rat at 10 mg/kg, po measured for 24 hrs by LC-MS/MS analysis; format: ADME, organism-based; details: in vivo
[22] = AUC (0 to infinity) in fasted Sprague-Dawley rat at 10 mg/kg, po measured for 24 hrs by LC-MS/MS analysis; format: ADME, organism-based; details: in vivo
[23] = AUC (0 to infinity) in fasted Sprague-Dawley rat at 2 mg/kg, iv measured for 24 hrs by LC-MS/MS analysis; format: ADME, organism-based; details: in vivo
[24] = Oral bioavailability in fasted Sprague-Dawley rat at 10 mg/kg measured for 24 hrs by LC-MS/MS analysis; format: ADME, organism-based; details: in vivo
[25] = Half life in fasted Sprague-Dawley rat at 10 mg/kg, po measured for 24 hrs by LC-MS/MS analysis; format: ADME, organism-based; details: in vivo
[26] = Toxicity in nude BALB/c mouse xenografted with human HL-60 cells assessed as toxic sign in kidney at 5 to 10 mg/kg, ip administered for 21 days consecutively by H and E staining based analysis; format: organism-based; details: in vivo, 504 h, dose 5-10 mg/kg, time 21 day
[27] = Toxicity in nude BALB/c mouse xenografted with human HL-60 cells assessed as toxic sign in heart at 5 mg/kg, ip administered for 21 days consecutively by H and E staining based analysis; format: organism-based; details: in vivo, 504 h, time 21 day
[28] = tested on: EOL1; test: Antiproliferative activity against human EOL1 cells incubated for 48 hrs by CCK8 assay; format: functional, cell-based; details: EOL1, 48 h
[29] = tested on: HL-60; test: Antiproliferative activity against human HL-60 cells incubated for 48 hrs by CCK8 assay; format: functional, cell-based; details: HL-60, 48 h
[30] = Toxicity in nude BALB/c mouse xenografted with human HL-60 cells assessed as toxic sign in lung at 5 mg/kg, ip administered for 21 days consecutively by H and E staining based analysis; format: organism-based; details: in vivo, 504 h, time 21 day
[31] = Toxicity in nude BALB/c mouse xenografted with human HL-60 cells assessed as body weight change at 5 mg/kg, ip administered for 21 days consecutively; format: organism-based; details: in vivo, 504 h, time 21 day
[32] = Toxicity in nude BALB/c mouse xenografted with human HL-60 cells assessed as toxic sign in spleen at 5 mg/kg, ip administered for 21 days consecutively by H and E staining based analysis; format: organism-based; details: in vivo, 504 h, time 21 day
[33] = Toxicity in nude BALB/c mouse xenografted with human HL-60 cells assessed as toxic sign in liver at 5 mg/kg, ip administered for 21 days consecutively by H and E staining based analysis; format: organism-based; details: in vivo, 504 h, time 21 day
[34] = tested on: HL-60; test: Antitumor activity against human HL-60 cells xenografted in nude BALB/c mouse assessed as tumor growth inhibition at 5 mg/kg, ip administered for 21 days consecutively relative to control; format: functional; details: HL-60, 504 h, time 21 day, read-out: TGI
[35] = tested on: MV4-11; test: Antiproliferative activity against human MV4-11 cells incubated for 48 hrs by CCK8 assay; format: functional, cell-based; details: MV4-11, 48 h
[36] = Toxicity in nude BALB/c mouse xenografted with human HL-60 cells assessed as toxic sign in kidney at 5 mg/kg, ip administered for 21 days consecutively by H and E staining based analysis; format: organism-based; details: in vivo, 504 h, time 21 day
[37] = tested on: KG-1; test: Antiproliferative activity against human KG-1 cells incubated for 48 hrs by CCK8 assay; format: functional, cell-based; details: KG-1, 48 h
[38] = Antiproliferative activity against human MOLM16 cells incubated for 48 hrs by CCK8 assay; details: MOLM16, 48 h

Sequence of Phosphatidylinositol 4,5-bisphosphate 3-kinase catalytic subunit beta isoform (P42338 whole entry, canonical isoform): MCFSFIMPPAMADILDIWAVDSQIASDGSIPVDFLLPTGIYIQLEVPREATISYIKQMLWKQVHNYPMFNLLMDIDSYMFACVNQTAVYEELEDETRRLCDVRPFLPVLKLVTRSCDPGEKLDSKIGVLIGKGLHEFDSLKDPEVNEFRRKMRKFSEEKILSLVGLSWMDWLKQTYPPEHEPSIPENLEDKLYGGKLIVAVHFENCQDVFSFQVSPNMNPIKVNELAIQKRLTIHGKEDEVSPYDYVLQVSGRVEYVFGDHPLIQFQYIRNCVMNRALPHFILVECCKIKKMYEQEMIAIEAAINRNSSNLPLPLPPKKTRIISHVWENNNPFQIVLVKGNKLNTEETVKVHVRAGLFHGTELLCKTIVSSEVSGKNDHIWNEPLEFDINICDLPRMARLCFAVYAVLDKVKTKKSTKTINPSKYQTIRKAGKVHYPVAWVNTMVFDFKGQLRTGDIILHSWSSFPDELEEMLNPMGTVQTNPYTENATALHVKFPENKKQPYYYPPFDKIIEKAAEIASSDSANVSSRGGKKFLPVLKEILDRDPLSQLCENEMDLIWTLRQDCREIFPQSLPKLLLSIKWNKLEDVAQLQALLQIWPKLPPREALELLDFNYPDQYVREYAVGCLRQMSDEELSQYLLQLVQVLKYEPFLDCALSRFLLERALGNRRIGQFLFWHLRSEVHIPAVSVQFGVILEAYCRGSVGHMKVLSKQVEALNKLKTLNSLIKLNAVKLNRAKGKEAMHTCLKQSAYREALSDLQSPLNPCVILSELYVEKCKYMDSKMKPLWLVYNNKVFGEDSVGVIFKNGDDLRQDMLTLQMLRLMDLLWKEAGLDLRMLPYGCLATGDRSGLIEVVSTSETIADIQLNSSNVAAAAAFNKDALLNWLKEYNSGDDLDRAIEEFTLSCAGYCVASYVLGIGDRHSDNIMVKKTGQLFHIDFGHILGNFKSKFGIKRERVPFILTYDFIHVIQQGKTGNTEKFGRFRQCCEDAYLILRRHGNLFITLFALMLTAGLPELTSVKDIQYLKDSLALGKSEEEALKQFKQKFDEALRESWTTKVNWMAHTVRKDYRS
Sequence of Phosphatidylinositol 4,5-bisphosphate 3-kinase catalytic subunit gamma isoform (P48736 whole entry, canonical isoform): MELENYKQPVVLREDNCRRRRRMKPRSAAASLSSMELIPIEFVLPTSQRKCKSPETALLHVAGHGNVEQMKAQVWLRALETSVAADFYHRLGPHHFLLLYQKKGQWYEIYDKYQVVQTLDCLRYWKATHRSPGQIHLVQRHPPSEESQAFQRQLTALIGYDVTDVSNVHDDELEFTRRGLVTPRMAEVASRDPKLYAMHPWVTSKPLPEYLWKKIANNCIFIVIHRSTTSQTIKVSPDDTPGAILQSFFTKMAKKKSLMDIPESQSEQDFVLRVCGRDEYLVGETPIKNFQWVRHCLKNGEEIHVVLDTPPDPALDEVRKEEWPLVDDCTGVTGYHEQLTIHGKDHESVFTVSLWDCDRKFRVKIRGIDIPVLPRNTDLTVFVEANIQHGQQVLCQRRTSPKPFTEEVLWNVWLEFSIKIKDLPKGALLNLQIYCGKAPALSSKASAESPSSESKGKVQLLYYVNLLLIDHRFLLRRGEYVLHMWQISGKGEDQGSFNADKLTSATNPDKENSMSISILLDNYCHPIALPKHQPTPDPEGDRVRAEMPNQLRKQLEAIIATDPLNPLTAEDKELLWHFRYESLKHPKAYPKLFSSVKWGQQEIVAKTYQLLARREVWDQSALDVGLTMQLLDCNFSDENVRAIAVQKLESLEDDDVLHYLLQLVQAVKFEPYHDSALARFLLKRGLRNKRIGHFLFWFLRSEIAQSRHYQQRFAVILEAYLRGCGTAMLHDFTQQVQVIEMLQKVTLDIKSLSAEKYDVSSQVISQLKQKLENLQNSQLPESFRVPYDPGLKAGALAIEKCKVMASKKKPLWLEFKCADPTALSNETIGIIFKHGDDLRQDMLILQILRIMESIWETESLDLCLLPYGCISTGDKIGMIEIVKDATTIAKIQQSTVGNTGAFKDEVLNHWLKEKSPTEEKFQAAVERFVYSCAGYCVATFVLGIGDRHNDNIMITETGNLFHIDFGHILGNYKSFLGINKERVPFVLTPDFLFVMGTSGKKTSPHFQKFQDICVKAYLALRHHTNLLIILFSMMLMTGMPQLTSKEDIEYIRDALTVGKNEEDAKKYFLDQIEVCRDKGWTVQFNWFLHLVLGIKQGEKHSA
Sequence of Phosphatidylinositol 4,5-bisphosphate 3-kinase catalytic subunit alpha isoform (P42336 whole entry, canonical isoform): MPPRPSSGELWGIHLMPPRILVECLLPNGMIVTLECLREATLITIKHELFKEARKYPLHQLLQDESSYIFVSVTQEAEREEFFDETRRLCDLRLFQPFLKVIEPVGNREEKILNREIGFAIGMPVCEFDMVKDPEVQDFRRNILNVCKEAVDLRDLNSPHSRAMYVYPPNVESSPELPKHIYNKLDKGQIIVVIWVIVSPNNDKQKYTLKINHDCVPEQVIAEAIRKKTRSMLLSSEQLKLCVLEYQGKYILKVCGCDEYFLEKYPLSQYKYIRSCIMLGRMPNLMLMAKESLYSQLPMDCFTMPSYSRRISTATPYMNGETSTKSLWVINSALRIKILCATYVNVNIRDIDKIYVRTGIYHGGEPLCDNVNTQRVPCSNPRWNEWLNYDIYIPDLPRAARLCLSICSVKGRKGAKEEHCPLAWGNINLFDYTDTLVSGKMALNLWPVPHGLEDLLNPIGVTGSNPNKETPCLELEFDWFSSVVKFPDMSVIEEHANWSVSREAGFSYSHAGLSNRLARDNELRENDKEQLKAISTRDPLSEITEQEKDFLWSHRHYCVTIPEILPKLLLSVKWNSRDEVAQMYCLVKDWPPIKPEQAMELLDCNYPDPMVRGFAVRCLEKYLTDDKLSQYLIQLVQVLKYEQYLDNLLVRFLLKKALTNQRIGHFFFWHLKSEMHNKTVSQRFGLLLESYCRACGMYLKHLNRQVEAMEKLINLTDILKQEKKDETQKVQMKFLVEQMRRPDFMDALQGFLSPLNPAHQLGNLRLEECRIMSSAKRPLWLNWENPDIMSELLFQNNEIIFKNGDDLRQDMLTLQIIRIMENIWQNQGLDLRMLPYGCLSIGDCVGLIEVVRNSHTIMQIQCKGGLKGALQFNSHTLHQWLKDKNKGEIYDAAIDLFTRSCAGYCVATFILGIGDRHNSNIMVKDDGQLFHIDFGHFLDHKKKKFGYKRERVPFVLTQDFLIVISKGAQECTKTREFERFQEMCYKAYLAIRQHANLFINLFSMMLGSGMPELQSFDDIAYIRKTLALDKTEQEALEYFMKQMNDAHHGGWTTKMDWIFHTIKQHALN

Question: Which IC50 [1] does the source give for `O=S(=O)(Nc1cc(-c2cnc3[nH]ncc3c2)cnc1Cl)c1ccccc1` here?
Answer: 32.2 nM

Question: Which IC50 [2] does the source give for `O=S(=O)(Nc1cc(-c2cnc3[nH]nc(-c4ccncc4)c3c2)cnc1Cl)c1ccccc1` here?
Answer: 7.37 nM

Question: What about the IC50 [1] of the same molecule?
Answer: 4.26 nM

Question: And the IC50 [3]?
Answer: 1.17 nM

Question: And the IC50 [4]?
Answer: 0.67 nM

Question: What about the IC50 [5] of the same molecule?
Answer: 4.37 nM

Question: For `O=S(=O)(Nc1cc(-c2cnc3[nH]nc(-c4ccccc4)c3c2)cnc1Cl)c1ccccc1`, which IC50 [1] is on record?
Answer: 2.65 nM

Question: And the IC50 [4]?
Answer: 1.24 nM

Question: With `O=S(=O)(Nc1cc(-c2cnc3[nH]nc(-c4ccncc4)c3c2)cnc1Cl)c1ccc(F)cc1` as the molecule, how does the clearance [6] read?
Answer: 37 mL/min/kg

Question: And the Activity [7]?
Answer: Non-Toxic

Question: And the IC50 [2]?
Answer: 0.65 nM

Question: What about the AUC(0-t) at 24 h [8] of the same molecule?
Answer: 898 ng·h/mL

Question: What about the Activity [9] of the same molecule?
Answer: Non-Toxic

Question: And the half-life [10]?
Answer: 2.29 h

Question: And the viability at 1 µM [11]?
Answer: 53.5%

Question: And the viability at 0.25 µM [12]?
Answer: 96.4%

Question: And the Activity [13]?
Answer: Non-Toxic

Question: What about the IC50 [3] of the same molecule?
Answer: 0.65 nM

Question: What about the Cmax [14] of the same molecule?
Answer: 15.5 ng/mL

Question: And the MRT inf [15]?
Answer: 0.593 h

Question: What about the Activity [16] of the same molecule?
Answer: Non-Toxic

Question: And the Tmax [17]?
Answer: 2.8 h

Question: And the viability at 0.5 µM [18]?
Answer: 90.4%

Question: What about the Activity [19] of the same molecule?
Answer: Non-Toxic

Question: What about the Vd [20] of the same molecule?
Answer: 7.26 L/kg

Question: What about the AUC(0-t) at 24 h [21] of the same molecule?
Answer: 104 ng·h/mL

Question: And the AUC(0-inf) [22]?
Answer: 121 ng·h/mL

Question: And the AUC(0-inf) [23]?
Answer: 903 ng·h/mL

Question: What about the bioavailability [24] of the same molecule?
Answer: 2.68%

Question: And the IC50 [5]?
Answer: 1.57 nM

Question: And the half-life [25]?
Answer: 4.48 h

Question: What about the Activity [26] of the same molecule?
Answer: Non-Toxic

Question: Which Activity [27] does the source give for `Cn1c(=O)n(-c2ccc(C(C)(C)C#N)cc2)c2c3cc(-c4cnc5ccccc5c4)ccc3ncc21` [DACTOLISIB] here?
Answer: Non-Toxic

Question: What about the IC50 [28] of the same molecule?
Answer: 1050 nM

Question: And the IC50 [29]?
Answer: 510 nM

Question: And the Activity [30]?
Answer: Non-Toxic

Question: What about the Activity [31] of the same molecule?
Answer: Non-Toxic

Question: And the Activity [32]?
Answer: Non-Toxic

Question: What about the Activity [33] of the same molecule?
Answer: Non-Toxic

Question: And the inhibition in vivo at 5 mg/kg [34]?
Answer: 62%

Question: What about the IC50 [35] of the same molecule?
Answer: 30 nM

Question: What about the Activity [36] of the same molecule?
Answer: Non-Toxic

Question: What about the IC50 [37] of the same molecule?
Answer: 1310 nM

Question: And the IC50 [38]?
Answer: 500 nM
